Laboratory results taken from the supplement of paper PMC10307832.

Legend:
Assay in all cases: relative viability (nuclei count vs DMSO), 5 days (fraction); higher = more cells survive
NVP-TAE684 + Navitoclax = compound: COc1cc(N2CCC(N3CCN(C)CC3)CC2)ccc1Nc1ncc(Cl)c(Nc2ccccc2S(=O)(=O)C(C)C)n1 [NVP-TAE684] + CC1(C)CCC(c2ccc(Cl)cc2)=C(CN2CCN(c3ccc(C(=O)NS(=O)(=O)c4ccc(N[C@H](CCN5CCOCC5)CSc5ccccc5)c(S(=O)(=O)C(F)(F)F)c4)cc3)CC2)C1 [Navitoclax] (partner 0.5 µM)
Procedure, shortened: (§1)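 Medians of duplicate plates are given as relative viability. That measure is the nuclei count in treated wells divided by the count in vehicle wells. Counts were taken on 4× images of lung cancer cell lines in 1536-well plates, 5 days after pin-tool dosing the day after seeding with one drug alone or a fixed anchor-drug dose plus five library-drug doses (not always all listed) in √10 steps.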

CUDC-101 + Lapatinib = compound: C#Cc1cccc(Nc2ncnc3cc(OC)c(OCCCCCCC(=O)NO)cc23)c1 [CUDC-101] + CS(=O)(=O)CCNCc1ccc(-c2ccc3ncnc(Nc4ccc(OCc5cccc(F)c5)c(Cl)c4)c3c2)o1 [Lapatinib] (partner 2 µM)
Procedure, shortened: as §1

Vandetanib + Lapatinib = compound: COc1cc2/c(=N/c3ccc(Br)cc3F)nc[nH]c2cc1OCC1CCN(C)CC1 [Vandetanib] + CS(=O)(=O)CCNCc1ccc(-c2ccc3ncnc(Nc4ccc(OCc5cccc(F)c5)c(Cl)c4)c3c2)o1 [Lapatinib] (partner 2 µM)
Procedure, shortened: as §1

[1] = compound: C1=CC=C2C(=C1)N=C(S2)C(C#N)C3=NC(=NC=C3)NCCC4=CN=CC=C4 + CC(=O)Nc1cccc(-n2c(=O)n(C3CC3)c(=O)c3c(Nc4ccc(I)cc4F)n(C)c(=O)c(C)c32)c1 [Trametinib] (partner 0.02 µM)
Procedure, shortened: as §1

Cell Line | relative viability (NVP-TAE684 + Navitoclax; first compound 0.2 µM) | relative viability (NVP-TAE684 + Navitoclax; first compound 2 µM) | relative viability (CUDC-101 + Lapatinib; first compound 0.01 µM) | relative viability (CUDC-101 + Lapatinib; first compound 0.03162 µM) | relative viability (CUDC-101 + Lapatinib; first compound 0.1 µM) | relative viability (CUDC-101 + Lapatinib; first compound 0.3162 µM) | relative viability (CUDC-101 + Lapatinib; first compound 1 µM) | relative viability (Vandetanib + Lapatinib; first compound 0.02 µM) | relative viability (Vandetanib + Lapatinib; first compound 0.06325 µM) | relative viability (Vandetanib + Lapatinib; first compound 0.2 µM) | relative viability (Vandetanib + Lapatinib; first compound 0.6325 µM) | relative viability (Vandetanib + Lapatinib; first compound 2 µM) | relative viability ([1]; first compound 0.005 µM) | relative viability ([1]; first compound 0.01581 µM) | relative viability ([1]; first compound 0.05 µM) | relative viability ([1]; first compound 0.1581 µM) | relative viability ([1]; first compound 0.5 µM) | relative viability (NVP-TAE684 + Navitoclax; first compound 0.6325 µM)
EPLC-272H | 1.02 | 1.48 | 1.13 | 0.987 | 1 | 0.392 | 0.482 | 1.05 | 0.791 | 0.933 | 1.02 | 0.168 | 0.392 | 0.277 | 0.301 | 0.336 | 0.265 | 
CAL-12T | 1.35 | 0.407 | 0.796 | 0.603 | 0.763 | 0.64 | 0.567 | 0.704 | 0.611 | 0.701 | 0.726 | 0.749 | 0.278 | 0.327 | 0.395 | 0.34 | 0.384 | 1.18
NCI-H1755 | 1.06 | 0.921 | 1.09 | 1.04 | 1.02 | 1.1 | 0.798 | 1.06 | 0.978 | 0.983 | 1.02 | 1.01 | 0.764 | 0.736 | 0.746 | 0.848 | 0.761 | 1.06
H3255 | 0.6 | 0.382 | 0.244 | 0.248 | 0.24 | 0.248 | 0.174 | 0.26 | 0.231 | 0.244 | 0.213 | 0.202 | 0.533 | 0.577 | 0.62 | 0.697 | 0.726 | 0.417
NCI-H1793 | 0.467 | 0.43 | 0.813 | 0.63 | 0.731 | 0.718 | 0.485 | 0.682 | 0.794 | 0.504 | 0.816 | 0.723 |  | 0.397 | 0.423 | 0.475 | 0.488 | 0.491
LK-2 | 0.777 | 0.449 | 0.981 | 0.888 | 0.973 | 0.887 | 0.559 | 0.999 | 0.964 | 0.716 | 1.05 | 0.636 | 0.535 | 0.604 | 0.907 | 0.74 | 0.838 | 
SW 1573 | 0.904 | 0.737 | 1.05 | 1.15 | 1.23 | 1.2 | 0.813 | 1.07 | 1.21 | 0.599 | 1.2 | 1.17 | 0.615 | 0.587 | 0.479 | 0.718 | 0.499 | 0.959
HCC-78 | 0.433 | 0.282 | 0.882 | 0.92 | 0.808 | 0.701 | 0.631 | 1.03 | 0.739 | 0.915 | 0.913 | 0.738 | 1.01 | 0.782 | 0.924 | 0.693 | 0.729 | 0.535
SK-MES-1 | 1.29 | 0.78 | 0.466 | 0.462 | 0.451 | 0.461 | 0.388 | 0.474 | 0.499 | 0.489 | 0.471 | 0.459 | 0.576 | 0.555 | 0.531 | 0.604 | 0.629 | 1.22
NCI-H2023 | 0.965 | 0.775 | 0.991 | 0.813 | 1.04 | 0.936 | 0.402 | 0.814 | 0.694 | 0.763 | 0.943 | 0.854 | 0.602 | 0.532 | 0.547 | 0.538 | 0.489 | 1.04
NCI-H2126 | 0.951 | 0.621 | 0.764 | 0.785 | 0.758 | 0.803 | 0.635 | 0.698 | 0.747 | 0.805 | 0.724 | 0.768 | 0.536 | 0.613 | 0.559 | 0.546 | 0.58 | 0.84
RERF-LC-KJ | 1.14 | 0.67 | 0.893 | 0.905 | 0.841 | 0.826 | 0.698 | 0.848 | 0.839 | 0.827 | 0.843 | 0.878 | 0.916 | 0.877 | 0.911 | 0.961 | 0.688 | 1.04
NCI-H3122 | 0.282 | 0.176 | 1.07 | 0.984 | 0.882 | 1.02 | 1.01 | 1.05 | 0.975 | 1.04 | 1.06 | 1 | 0.178 | 0.238 | 0.221 | 0.216 | 0.197 | 0.525
NCI-H322M | 1.21 | 1.2 | 0.618 | 0.648 | 0.521 | 0.575 | 0.603 | 0.6 | 0.534 | 0.567 | 0.516 | 0.5 | 0.483 | 0.525 | 0.489 | 0.569 | 0.558 | 1.3
NCI-H647 | 1.4 | 1.16 | 1.25 | 1.1 | 1.02 | 0.863 | 0.271 | 1.02 | 1.09 | 1.09 | 1.08 | 0.999 | 0.407 | 0.515 | 0.45 | 0.546 | 0.451 | 1.06
EMC-BAC-2 | 1.12 | 0.695 | 0.836 | 0.88 | 0.909 | 0.974 | 0.485 | 0.906 | 0.87 | 0.435 | 0.866 | 0.95 | 1.03 | 0.938 | 0.812 | 0.963 | 0.855 | 1.13
PC-14 | 1.13 | 0.894 | 0.328 | 0.282 | 0.315 | 0.321 | 0.171 | 0.295 | 0.382 | 0.308 | 0.273 | 0.282 | 0.411 | 0.933 | 0.633 | 0.948 | 0.809 | 1.05
